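Where inhibition never reached the appropriate level, the endpoint shown equals the highest concentration tested. Otherwise, values were interpolated linearly from a five-concentration, 48-hour dose response in 96-well plates. GI50: concentration for 50% inhibition of growth. Definition used: TGI = concentration required for complete inhibition of growth.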
Tests used:
Experiment in all cases: NCI-60 cell line screen, 48 h
UO-31 renal = system: UO-31 renal
HCT-15 colon = system: HCT-15 colon
OVCAR-3 ovarian = system: OVCAR-3 ovarian
A549 NSCLC = system: A549 NSCLC
OVCAR-4 ovarian = system: OVCAR-4 ovarian
NCI-H522 lung = system: NCI-H522 lung
DU-145 prostate = system: DU-145 prostate
K-562 leukemia = system: K-562 leukemia
M14 melanoma = system: M14 melanoma
MCF7 breast = system: MCF7 breast

Row | SMILES | GI50 (UO-31 renal) [µM] | TGI (UO-31 renal) [µM] | GI50 (HCT-15 colon) [µM] | TGI (HCT-15 colon) [µM] | GI50 (OVCAR-3 ovarian) [µM] | TGI (OVCAR-3 ovarian) [µM] | GI50 (A549 NSCLC) [µM] | TGI (A549 NSCLC) [µM] | GI50 (OVCAR-4 ovarian) [µM] | TGI (OVCAR-4 ovarian) [µM] | GI50 (NCI-H522 lung) [µM] | TGI (NCI-H522 lung) [µM] | GI50 (DU-145 prostate) [µM] | TGI (DU-145 prostate) [µM] | GI50 (K-562 leukemia) [µM] | TGI (K-562 leukemia) [µM] | GI50 (M14 melanoma) [µM] | TGI (M14 melanoma) [µM] | GI50 (MCF7 breast) [µM] | TGI (MCF7 breast) [µM]
1 | CCN(CC)CCOc1ccc2c(-c3ccccc3)c(-c3ccc(OC)cc3)c(=O)oc2c1 | 1.65 | 5.55 | 2.64 | 8.18 | 4.32 | 16.5 | 7.76 | 22 | 4.8 | 18.1 | 4.92 | 18.5 | 10.5 | 22.6 | 2.55 | 10.5 | 1.94 | 3.66 | 4.33 | 14.1
2 | C=C(CC)C(=O)c1ccc(OCC(=O)O)c(Cl)c1Cl |  | 34.3 |  | 58.8 |  | 30.1 |  | > 100 |  | 43.6 |  | 29.6 |  | > 73.2 |  | > 100 |  | 45 |  | 20.8
3 | COc1cccc(N2C(=N)/C(=C3\Nc4ccccc4S3)CC2=O)c1 | 4.1 | > 100 | 0.815 | > 100 | 14.8 | > 100 | 5.49 | > 100 | 12.1 | 71.9 | 8.22 | > 100 | 44.3 | > 100 | 3.92 | > 100 | > 100 | > 100 | 6.65 | > 100
4 | O=C(CCl)N1CCN(c2ccccc2)CC1 |  | 32 |  | 39.2 |  |  |  | 43.3 |  | 32.9 |  |  |  | > 100 |  | > 100 |  | 35.2 |  | 42.4
5 | C=C1CC[C@@](C)(c2cc(Br)c(C)cc2OC(C)=O)[C@H]1C | 13.1 | 30.5 | 15.1 | 31.3 | 14.6 | 29.2 | 12.3 | 26.5 | 3.63 | 17.4 | 15 | 31.4 | 15.9 | 31.9 | 14 | 30.2 | 15.9 | 30.6 | 12.8 | 28
6 | Nc1ncc(-c2ccc3ncnc(N4CCc5cc(F)c(Cl)cc54)c3c2)cc1C=O | 0.277 | > 100 | 2.41 | > 100 | 1.66 | > 100 | 0.949 | 12.5 | 2.98 | > 100 | 2.17 | > 100 | 0.936 | > 100 | 2.82 | > 100 | 1.85 | > 100 | 1.7 | > 100
7 | O=C(O)C1CC[N-]CC1.O=C(O)C1CC[N-]CC1.[NH2-].[NH2-].[Pt+4] |  |  | > 100 | > 100 | > 100 | > 100 | > 100 | > 100 | > 100 | > 100 | > 100 | > 100 | > 100 | > 100 | > 100 | > 100 | > 100 | > 100 | > 100 | > 100
8 | CN(C)Cc1ccc(O)c(CN(C)C)n1 |  | > 100 |  | > 100 |  | > 100 |  | > 100 |  | > 100 |  | > 100 |  | > 100 |  | > 100 |  | > 100 |  | > 100
9 | O=C(O)c1cc(-c2ccc(-c3ccccc3)cc2)nc2cc3ccccc3cc12 |  | > 100 |  | > 100 |  | > 100 |  | > 100 |  | > 100 |  | > 100 |  | > 100 |  | > 100 |  | > 100 |  | > 100
10 | Cc1cc2c3c(nc4ccccc42)C(=O)c2cccnc2-c3n1 |  |  | 0.015 | 0.162 |  | 0.0263 | 0.372 | 1.84 | 1.28 | 4.27 | 0.04 | 0.315 | 0.3 | 1.48 | 0.109 | 0.345 | 0.479 |  | 0.0212 | 0.156
11 | C/C=C(/C)C(=O)OC1C=C(CO)C(=O)C(OC(=O)C2(C)OC2C)C1C(C)C (stereo not given) | 1.61 | 2.96 | 1.4 | 3.09 | 1.17 | 2.45 | 2.6 | 7.7 | 1.93 | 3.91 | 1.07 | 2.54 | 1.52 | 2.88 | 1.33 | 10.8 | 1.58 | 3.49 | 1.19 | 4.14
12 | O=C(Nc1nc2ccc(OC(F)(F)F)cc2s1)c1ccc(F)cc1 | 3.44 | > 100 | 3.04 | 10.5 | 2.22 | 7.2 | 3.51 | > 100 | 2.95 | > 100 | 3.14 | 11.4 | 3.44 | > 100 | 3.58 | > 100 | 4.4 | > 100 | 2.12 | 18.2
13 | CC[C@]1(O)CC2CN(CCc3c([nH]c4ccccc34)C(C(=O)OC)(c3cc4c(cc3OC)N(C=O)[C@H]3[C@@](O)(C(=O)OC)[C@H](OC(C)=O)[C@]5(CC)[C@@H]6C[C@@H]6CN6CC[C@]43[C@@H]65)C2)C1 (stereo not given in full) | 0.173 | > 19.4 | 0.0365 | > 32.5 | < 0.00325 | < 0.00325 | < 0.00325 | > 30.7 | < 0.00325 | > 29.9 | < 0.00325 | < 0.00325 | < 0.00325 | < 0.00325 | < 0.00325 | 4.84 | < 0.00325 | 0.00478 | < 0.00325 | > 11.7
14 | CN1C(=O)[C@@H](CC2CCCC2)N(C2CCCC2)c2nc(Nc3cc(Cl)c(O)c(Cl)c3)ncc21 |  |  | 14.6 | 56.2 | 21.8 | 73.9 | 22.1 | > 100 | 25.8 | > 100 | 10.8 | > 100 | 27.6 | > 100 | 14.6 | > 100 | 22.2 | > 100 | 15.2 | > 100
